Experiments:
Format in all cases: physicochemical
[1] = Test Example 3: dependence of stability on the amount of lactose added
Protocol: 10 mg of Compound (II) and, as a stabilizer, 100 mg of lactose or 9 mg of sodium chloride were dissolved completely in 1 ml of water. The resulting solutions were lyophilized and maintained at 70° C. in glass vials. Nine days after, the resulting compositions were tested on their appearance, the residual amount of Compound (II), and others. As a control, used was a solution of Compound (II) without any stabilizers.
Dependence of the Stability of Lyophilized Compositions of Compound (II) upon the Amount of Lactose Added
Tests were carried out in the same manner as in Test example 1 except that 20 mg, 50 mg, 100 mg or 200 mg of lactose were added as a stabilizer. […] Incidentally, it took 15 seconds to reconstitute the compositions in 1 ml of water.

[2] = as above; conditions: after 3 months at 40° C. and 75% humidity
[3] = Test Example 4: stability of lyophilized compositions of 200 mg of lactose and Compound (II) in vial
[4] = 10 mg Compound (II) + 20 mg lactose, after 9 days at 70° C.
[5] = 10 mg Compound (II) + 50 mg lactose, 0 hours
[6] = 10 mg Compound (II) + 50 mg lactose, after 3 months at 40° C. and 75% humidity
[7] = 10 mg Compound (II) + 50 mg lactose, after 9 days at 70° C.
[8] = 10 mg Compound (II) + 100 mg lactose, 0 hours
[9] = 10 mg Compound (II) + 100 mg lactose, after 3 months at 40° C. and 75% humidity
[10] = 10 mg Compound (II) + 100 mg lactose, after 9 days at 70° C.
[11] = 10 mg Compound (II) + 200 mg lactose, 0 hours
[12] = 10 mg Compound (II) + 200 mg lactose, after 3 months at 40° C. and 75% humidity
[13] = 10 mg Compound (II) + 200 mg lactose, after 9 days at 70° C.
[14] = 25 mg Compound (II) + 200 mg lactose, after 3 months at 40° C. and 75% humidity

For `CCCCCOc1ccc(-c2cc(-c3ccc(C(=O)NC4CC(O)C(O)NC(=O)C5C(O)C(C)CN5C(=O)C(C(O)CC(N)=O)NC(=O)C(C(O)C(O)c5ccc(O)c(OS(=O)(=O)[O-])c5)NC(=O)C5CC(O)CN5C(=O)C(C(C)O)NC4=O)cc3)no2)cc1.[Na+]` (stereo not drawn) [Compound (II)], the “Color of reconstituted solution in 1 ml of water” value (“Color of reconstituted solution” below) [1, 4] was “White”, the Residual amount [1, 4] was 88.09% and the Total impurities [1, 4] was 12.3%. The “pH of reconstituted solution in 1 ml of water” value (shortened to “pH … of water”) [1, 4] was 3.03, the “Clarity of reconstituted solution in 1 ml of water” value (“Clarity of reconstituted solution” below) [1, 5] was “Clear” and the “Color of reconstituted solution” value [1, 5] was “Colorless”. It also gave a Residual amount [1, 5] of 100.0%, a Total impurities [1, 5] of 3.32% and a Water content [1, 5] of 0.5%. For the same compound, the “pH … of water” value [1, 5] was 6.57, the Appearance [1, 6] was “White mass” and the “Clarity of reconstituted solution” value [1, 6] was “Clear”. For the same compound, the “Color of reconstituted solution” value [1, 6] was “Colorless”, the Residual amount [1, 6] was 99.8% and the Total impurities [1, 6] was 4.21%. For the same compound, the “Clarity of reconstituted solution” value [1, 7] was “Clear”, the “Color of reconstituted solution” value [1, 7] was “Colorless” and the Residual amount [1, 7] was 96.7%. For the same compound, the Total impurities [1, 7] was 7.37%, the “pH … of water” value [1, 7] was 5.56 and the “Clarity of reconstituted solution” value [1, 8] was “Clear”. For the same compound, the “Color of reconstituted solution” value [1, 8] was “Colorless”, the Residual amount [1, 8] was 100.0% and the Total impurities [1, 8] was 3.43%. For the same compound, the Water content [1, 8] was 0.3%, the “pH … of water” value [1, 8] was 6.58 and the Appearance [1, 9] was “White mass”. For the same compound, the “Color of reconstituted solution” value [1, 9] was “Colorless”, the Residual amount [1, 9] was 99.6% and the Total impurities [1, 9] was 3.96%. For the same compound, the “pH … of water” value [1, 9] was 5.80, the “Clarity of reconstituted solution” value [1, 10] was “Clear” and the “Color of reconstituted solution” value [1, 10] was “Colorless”. The Residual amount [1, 10] was 96.7%, the Total impurities [1, 10] was 7.08% and the “pH … of water” value [1, 10] was 6.08. The “Clarity of reconstituted solution” value [1, 11] was “Clear”, the “Color of reconstituted solution” value [1, 11] was “Colorless” and the Residual amount [1, 11] was 100.0%. The Total impurities [1, 11] was 3.40%, the Water content [1, 11] was 0.3% and the “pH … of water” value [1, 11] was 6.78. For the same compound, the Appearance [1, 12] was “White mass”, the “Clarity of reconstituted solution” value [1, 12] was “Clear” and the “Color of reconstituted solution” value [1, 12] was “Colorless”. For the same compound, the Residual amount [1, 12] was 99.6%, the Total impurities [1, 12] was 4.35% and the “pH … of water” value [1, 12] was 5.36. The “Clarity of reconstituted solution” value [1, 13] was “Clear”, the “Color of reconstituted solution” value [1, 13] was “Colorless” and the Residual amount [1, 13] was 96.1%. For the same compound, the Total impurities [1, 13] was 7.30%, the “pH … of water” value [1, 13] was 5.70 and the “Time to reconstitute the compositions in 1 ml of water” value ([1]; 10 mg Compound (II) + 20, 50, 100 or 200 mg lactose) was 15 s. For the same compound, the “Stability of lyophilized compositions (conclusion from Table 3)” value ([1]; 10 mg of Compound (II) and various amount of lactose) was “no problem in their stability”, the Appearance ([2]; 10 mg Compound (II) + 20 mg lactose) was “White mass” and the “pH … of water” value ([2]; 10 mg Compound (II) + 50 mg lactose) was 6.26. The “Clarity of reconstituted solution” value ([2]; 10 mg Compound (II) + 100 mg lactose) was “Clear”, the Residual amount [3, 14] was 101.2% and the “pH of reconstituted solution in 5 ml of purified water” value [3, 14] was 6.14. The Total impurities ([3]; 50 mg Compound (II) + 200 mg lactose, after 21 days at 60° C.) was 3.68%, the Residual amount ([3]; 75 mg Compound (II) + 200 mg lactose, after 21 days at 60° C.) was 97.7% and the “pH of reconstituted solution in 5 ml of purified water” value ([3]; 100 mg Compound (II) + 200 mg lactose, after 3 months at 40° C. and 75% humidity) was 5.85.
